Reference: paper PMC11510666, “Thiazolidinedione-Conjugated Lupeol Derivatives as Potent Anticancer Agents Through a Mitochondria-Mediated Apoptotic Pathway” (Molecules, 2024)

What was measured:
human lung cancer A549 = test: MTT antiproliferative assay, A549; format: cell-based; settings: 48 h, mean ± SD, three independent experiments
Experimental: (§1) These cell lines were cultured in Dulbecco's Modified Eagle Medium containing 10% (v/v) fetal bovine serum (FBS, Wisent) and 1% (v/v) Penicillin-Streptomycin Solution mixture (Beyotime, Shanghai, China) at 37 °C under 5% CO2. An MTT assay evaluated the cytotoxicity of lupeol derivatives toward the A549, MCF-7, HepG2, and LO2 cell lines. The cells were inoculated into 96-well plates (3 × 10^3 cells/well) and cultured for 24 h at 37 °C in 5% CO2. After that, a gradient concentration of the test drug was added to continue the incubation for 48 h. Subsequently, the MTT solution continued to incubate with the cells for 4 h. Afterward, the upper waste layer was discarded, and DMSO was added ([…], Tianjin, China). After the formazan completely dissolved, the absorbance of each well at 490 nm was measured with a microplate reader. The mean values were derived from three independent experiments.

[1] = test system: human hepatocarcinoma HepG2; test: MTT antiproliferative assay, HepG2; format: cell-based; settings: for IC50: MTT, 48 h, mean ± SD, three independent experiments; for SI (selectivity index): IC50 values on L02 cells/HepG2 cells
Experimental: as §1

[2] = test system: human breast cancer MCF-7; test: MTT antiproliferative assay, MCF-7; format: cell-based; settings: mean ± SD, three independent experiments
Experimental: as §1

human hepatic LO2 cells = settings: read-out: IC50 LO2; MTT, 48 h, mean ± SD, three independent experiments
Experimental: as §1

Row | IC50 (human lung cancer A549) [µM] | IC50 [1] [µM] | IC50 ([2]; 48 h) [µM] | IC50 ([1]; Homo sapiens, HepG2) [µM] | IC50 ([2]; Homo sapiens, MCF7, 48 h) [µM] | Compound | IC50 (human hepatic LO2 cells) [µM] | SI (selectivity index) [1]
1 | 17.3 ± 1.58 | 22.7 ± 1.59 | 24 ± 1.87 | – | – | C=C(C)C1CCC2(C)CCC3(C)C(CCC4C5(C)CCC(OC(=O)CN6C(=O)SC(=Cc7ccc(F)cc7)C6=O)C(C)(C)C5CCC43C)C12 (centres unmarked) [Compound 6a, Lupeol-3-[(1-Ethyl)-2]-5-(4-Fluorobenzylidene)-2,4-Thiazolidinedione] | 92.6 ± 1.03 | 4.07
2 | 14.2 ± 1.72 | 16.6 ± 1.38 | 13.8 ± 0.75 | – | – | C=C(C)C1CCC2(C)CCC3(C)C(CCC4C5(C)CCC(OC(=O)CN6C(=O)SC(=Cc7ccc(Cl)cc7)C6=O)C(C)(C)C5CCC43C)C12 (centres unmarked) [Compound 6b, Lupeol-3-[(1-Ethyl)-2]-5-(4-Chlorobenzylidene)-2,4-Thiazolidinedione] | 70.5 ± 1.51 | 4.25
3 | 10.4 ± 0.82 | 18.2 ± 1.27 | 22.1 ± 1.42 | – | – | C=C(C)C1CCC2(C)CCC3(C)C(CCC4C5(C)CCC(OC(=O)CN6C(=O)SC(=Cc7ccc(C)cc7)C6=O)C(C)(C)C5CCC43C)C12 (centres unmarked) [Compound 6c, Lupeol-3-[(1-Ethyl)-2]-5-(4-Methylbenzylidene)-2,4-Thiazolidinedione] | 76.4 ± 1.22 | 4.2
4 | 14.2 ± 1.43 | 10.9 ± 0.78 | 15.4 ± 1.22 | – | – | C=C(C)C1CCC2(C)CCC3(C)C(CCC4C5(C)CCC(OC(=O)CN6C(=O)SC(=Cc7ccc(C(C)(C)C)cc7)C6=O)C(C)(C)C5CCC43C)C12 (centres unmarked) [Compound 6d, Lupeol-3-[(1-Ethyl)-2]-5-(4-Tert-Butylphenyl)-2,4-Thiazolidinedione] | 39.2 ± 1.07 | 3.61
5 | 9.43 ± 0.74 | 15.5 ± 0.86 | 12.5 ± 0.74 | – | – | C=C(C)C1CCC2(C)CCC3(C)C(CCC4C5(C)CCC(OC(=O)CN6C(=O)SC(=Cc7ccccc7OC)C6=O)C(C)(C)C5CCC43C)C12 (centres unmarked) [Compound 6e, Lupeol-3-[(1-Ethyl)-2]-5-(2-Methoxybenzylidene)-2,4-Thiazolidinedione] | 70.8 ± 0.93 | 4.57
6 | 10.3 ± 0.86 | 19.2 ± 1.57 | 16.1 ± 0.89 | – | – | C=C(C)C1CCC2(C)CCC3(C)C(CCC4C5(C)CCC(OC(=O)CN6C(=O)SC(=Cc7ccc(OC)c(OC)c7OC)C6=O)C(C)(C)C5CCC43C)C12 (centres unmarked) [Compound 6f, Lupeol-3-[(1-Ethyl)-2]-5-(2,3,4-Trimethoxybenzylidene)-2,4-Thiazolidinedione] | 85.3 ± 1.12 | 4.44
7 | 14.9 ± 1.21 | 15.3 ± 1.32 | 12.8 ± 0.22 | – | – | C=C(C)C1CCC2(C)CCC3(C)C(CCC4C5(C)CCC(OC(=O)CN6C(=O)SC(=Cc7ccco7)C6=O)C(C)(C)C5CCC43C)C12 (centres unmarked) [Compound 6g, Lupeol-3-[(1-Ethyl)-2]-5-(2-Furanylmethylene)-2,4-Thiazolidinedione] | 60.6 ± 1.84 | 3.95
8 | 14 ± 1.39 | 12.8 ± 0.97 | 11.3 ± 0.85 | – | – | C=C(C)C1CCC2(C)CCC3(C)C(CCC4C5(C)CCC(OC(=O)CN6C(=O)SC(=Cc7cccs7)C6=O)C(C)(C)C5CCC43C)C12 (centres unmarked) [Compound 6h, Lupeol-3-[(1-Ethyl)-2]-5-(2-Thienylmethylene)-2,4-Thiazolidinedione] | 58.4 ± 0.78 | 4.55
9 | 11.3 ± 0.91 | 9.48 ± 0.71 | 8.7 ± 0.12 | – | – | C=C(C)C1CCC2(C)CCC3(C)C(CCC4C5(C)CCC(OC(=O)CN6C(=O)SC(=CC(C)C)C6=O)C(C)(C)C5CCC43C)C12 (centres unmarked) [Compound 6i, Lupeol-3-[(1-Ethyl)-2]-5-(2-Methylpropylidene)-2,4-Thiazolidinedione] | 45.5 ± 1.33 | 4.80
10 | 18.7 ± 1.25 | 20.5 ± 1.62 | 19.1 ± 1.78 | – | – | C=C(C)C1CCC2(C)CCC3(C)C(CCC4C5(C)CCC(OC(=O)N6CCN(C(=O)CN7C(=O)SC(=Cc8ccc(F)cc8)C7=O)CC6)C(C)(C)C5CCC43C)C12 (centres unmarked) [Compound 9a, Lupeol-3-[(1-Piperazinyl)-4]-5-(4-Fluorobenzylidene)-2,4-Thiazolidinedione] | 79.1 ± 1.25 | 3.87
11 | 15.5 ± 0.64 | 18.1 ± 1.73 | 14 ± 0.87 | – | – | C=C(C)C1CCC2(C)CCC3(C)C(CCC4C5(C)CCC(OC(=O)N6CCN(C(=O)CN7C(=O)SC(=Cc8ccc(Cl)cc8)C7=O)CC6)C(C)(C)C5CCC43C)C12 (centres unmarked) [Compound 9b, Lupeol-3-[(1-Piperazinyl)-4]-5-(4-Chlorobenzylidene)-2,4-Thiazolidinedione] | 80.5 ± 1.79 | 4.44
12 | 12.7 ± 0.68 | 15.7 ± 1.52 | 16.3 ± 0.76 | – | – | C=C(C)C1CCC2(C)CCC3(C)C(CCC4C5(C)CCC(OC(=O)N6CCN(C(=O)CN7C(=O)SC(=Cc8ccc(C)cc8)C7=O)CC6)C(C)(C)C5CCC43C)C12 (centres unmarked) [Compound 9c, Lupeol-3-[(1-Piperazinyl)-2]-5-(4-Methylbenzylidene)-2,4-Thiazolidinedione] | 65.1 ± 0.93 | 4.14
13 | 11.7 ± 0.75 | 9.52 ± 0.61 | 18.1 ± 1.93 | – | – | C=C(C)C1CCC2(C)CCC3(C)C(CCC4C5(C)CCC(OC(=O)N6CCN(C(=O)CN7C(=O)SC(=Cc8ccc(C(C)(C)C)cc8)C7=O)CC6)C(C)(C)C5CCC43C)C12 (centres unmarked) [Compound 9d, Lupeol-3-[(1-Piperazinyl)-4]-5-(4-Tert-Butylphenyl)-2,4-Thiazolidinedione] | 42.2 ± 1.28 | 4.43
14 | 10.4 ± 0.38 | 16.5 ± 1.26 | 18.6 ± 1.27 | – | – | C=C(C)C1CCC2(C)CCC3(C)C(CCC4C5(C)CCC(OC(=O)N6CCN(C(=O)CN7C(=O)SC(=Cc8ccccc8OC)C7=O)CC6)C(C)(C)C5CCC43C)C12 (centres unmarked) [Compound 9e, Lupeol-3-[(1-Piperazinyl)-4]-5-(2-Methoxybenzylidene)-2,4-Thiazolidinedione] | 63.3 ± 1.14 | 3.83
15 | 9.24 ± 0.48 | 10.8 ± 0.45 | 9.19 ± 0.46 | – | – | C=C(C)C1CCC2(C)CCC3(C)C(CCC4C5(C)CCC(OC(=O)N6CCN(C(=O)CN7C(=O)SC(=Cc8ccc(OC)c(OC)c8OC)C7=O)CC6)C(C)(C)C5CCC43C)C12 (centres unmarked) [Compound 9f, Lupeol-3-[(1-Piperazinyl)-4]-5-(2,3,4-Trimethoxybenzylidene)-2,4-Thiazolidinedione] | 56.1 ± 0.77 | 5.19
16 | 9.91 ± 0.42 | 15 ± 0.74 | 12 ± 0.75 | – | – | C=C(C)C1CCC2(C)CCC3(C)C(CCC4C5(C)CCC(OC(=O)N6CCN(C(=O)CN7C(=O)SC(=Cc8ccco8)C7=O)CC6)C(C)(C)C5CCC43C)C12 (centres unmarked) [Compound 9g, Lupeol-3-[(1-Piperazinyl)-4]-5-(2-Furanylmethylene)-2,4-Thiazolidinedione] | 62.77 ± 0.62 | 4.19
17 | 16.4 ± 1.69 | 15.3 ± 0.98 | 13.8 ± 0.58 | – | – | C=C(C)C1CCC2(C)CCC3(C)C(CCC4C5(C)CCC(OC(=O)N6CCN(C(=O)CN7C(=O)SC(=Cc8cccs8)C7=O)CC6)C(C)(C)C5CCC43C)C12 (centres unmarked) [Compound 9h, Lupeol-3-[(1-Piperazinyl)-4]-5-(2-Thienylmethylene)-2,4-Thiazolidinedione] | 68.9 ± 1.19 | 4.50
18 | 13.8 ± 0.84 | 6.91 ± 0.31 | 20.1 ± 1.59 | – | – | C=C(C)C1CCC2(C)CCC3(C)C(CCC4C5(C)CCC(OC(=O)N6CCN(C(=O)CN7C(=O)SC(=CC(C)C)C7=O)CC6)C(C)(C)C5CCC43C)C12 (centres unmarked) [Compound 9i, Lupeol-3-[(1-Piperazinyl)-4]-5-(2-Methylpropylidene)-2,4-Thiazolidinedione] | 35.4 ± 0.72 | 5.12
19 | 10.5 ± 0.56 | 16.5 ± 0.54 | 16.8 ± 1.29 | – | – | C=C(C)C1CCC2(C)CCC3(C)C(CCC4C5(C)CCC(OC(=O)NCCNC(=O)CN6C(=O)SC(=Cc7ccc(F)cc7)C6=O)C(C)(C)C5CCC43C)C12 (centres unmarked) [Compound 12a, Lupeol-3-[(1-Ethylenediaminyl)-4]-5-(4-Fluorobenzylidene)-2,4-Thiazolidinedione] | 71.03 ± 0.57 | 4.30
20 | 17.1 ± 1.28 | 17.7 ± 0.79 | 19.1 ± 1.63 | – | – | C=C(C)C1CCC2(C)CCC3(C)C(CCC4C5(C)CCC(OC(=O)NCCNC(=O)CN6C(=O)SC(=Cc7ccc(Cl)cc7)C6=O)C(C)(C)C5CCC43C)C12 (centres unmarked) [Compound 12b, Lupeol-3-[(1-Ethylenediaminyl)-4]-5-(4-Chlorobenzylidene)-2,4-Thiazolidinedione] | 76.87 ± 0.69 | 4.35
21 | 13.4 ± 0.79 | 10.7 ± 0.12 | 14.3 ± 0.78 | – | – | C=C(C)C1CCC2(C)CCC3(C)C(CCC4C5(C)CCC(OC(=O)NCCNC(=O)CN6C(=O)SC(=Cc7ccc(C)cc7)C6=O)C(C)(C)C5CCC43C)C12 (centres unmarked) [Compound 12c, Lupeol-3-[(1-Ethylenediaminyl)-2]-5-(4-Methylbenzylidene)-2,4-Thiazolidinedione] | 40.68 ± 0.31 | 3.79
22 | – | – | – | 43.6 ± 1.37 | 62 ± 1.79 | C=C(C)[C@@H]1CC[C@]2(C)CC[C@]3(C)[C@H](CC[C@@H]4[C@@]5(C)CC[C@H](O)C(C)(C)[C@@H]5CC[C@]43C)[C@@H]12 [Lupeol] | – | –

Row | Compound | IC50 (human lung cancer A549) [µM] | IC50 [1] [µM] | IC50 ([2]; 48 h) [µM] | IC50 ([1]; Homo sapiens, HepG2) [µM] | IC50 ([2]; Homo sapiens, MCF7, 48 h) [µM] | IC50 (human hepatic LO2 cells) [µM] | SI (selectivity index) [1]
23 | N.N.[Cl][Pt][Cl] [Cisplatin, cisplatin, reference compound] | 4.96 ± 0.48 | 4.65 ± 0.54 | 5.79 ± 0.49 | – | – | – | –
